From patent US20230272083A1, “COMBINATION OF AN ANTI-PD-L1 ANTIBODY AND A DNA-PK INHIBITOR FOR THE TREATMENT OF CANCER” (Merck Patent GmbH, priority 2017, published 2023)

Experiments:
DNA-PK = DNA-PK (Homo sapiens, UniProt P78527); test: Crystallographic and enzyme kinetics studies; format: biochemical
From the text: DNA-PK, together with five additional protein factors (Ku70, Ku80, XRCC4, Ligase IV and Artemis) plays a critical role in the repair of DSB via NHEJ. Kinase activity of DNA-PK is essential for proper and timely DNA repair and the long-term survival of cancer cells.

[1] = tested on: murine colon tumor model MC38; test: M3814 and avelumab in syngeneic MC38 tumor model (Example 1); format: in vivo, C57BL6/N mice; conditions: M3814 150 mg/kg orally once daily, avelumab 400 μg/mouse intravenously on days 3, 6 and 9; for median time the tumors needed to double in size as compared to their initial volume at day 0: Kaplan-Meyer evaluation
From the text: This model allows the use of immunocompetent mice, a necessary requirement to study the T-cell mediated antitumor effect of Avelumab. The experimental set up included the induction of MC38 tumors in C57BL6/N mice by injection of 1×10^6 tumor cells into the right flank of the animals. Tumor growth was followed over time by measuring length and width using a caliper. When tumors were established to an average size of 50-100 mm^3, mice were subdivided in 4 treatment groups with 10 animals each, and treatment started. This day was defined as day 0. Group 1 received vehicle treatment. Group 2 received M3814 orally once daily at 150 mg/kg in a volume of 10 ml/kg. Group 3 received avelumab intravenously once daily at 400 μg/mouse in a volume of 5 ml/kg on days 3, 6 and 9. Group 4 received M3814 orally once daily at 150 mg/kg in a volume of 10 ml/kg and avelumab intravenously once daily at 400 μg/mouse in a volume of 5 ml/kg on days 3, 6 and 9.

[2] = tested on: p53 wild-type cancer cells (A549, A375, H460); test: Cell cycle arrest and senescence after ionizing radiation plus M3814; format: cell-based
[3] = tested on: human PBMC-derived immune cells; test: Effect of culture media from M3814-induced senescent cells on immune cells (live imaging); format: cell-based
Experimental: (§1) These substantial changes in gene expression were built gradually and correlated with the development of senescence phenotype. Several proteins from the induced subset were measured in the cell media (Meso Scale Discovery) and confirmed that they are secreted by senescent cells in the absence of M3814.

A549 and A375 cells = test: Nanostring PanCancer Immune panel mRNA analysis of IR/M3814 induced senescent cells; format: cell-based
Experimental: as §1

[4] = 10 mg/kg dose; cited from earlier work

COc1ccc([C@@H](O)c2cc(-c3ncnc4cc(N5CCOCC5)ccc34)c(F)cc2Cl)nn1 [Compound M3814, (S)-[2-chloro-4-fluoro-5-(7-morpholin-4-yl-quinazolin-4-yl)-phenyl]-(6-methoxypyridazin-3-yl)-methanol]
inhibition of DNA-PK (DNA-PK): potent and selective ATP-competitive inhibitor | median time the tumors needed to double in size as compared to their initial volume at day 0 [1]: 10 days | T/C values calculated at day 13 [1]: 47% | reversibility of senescence phenotype following compound removal ([2]; A549 cells, live cell imaging and BrdU labeling): not reversible | time to typical senescence phenotype (large/flat morphology, β-Gal staining) ([2]; IR 2-5Gy plus sustained M3814): 4-7 days | ATM dependent signaling, including CHK2 and p53-dependent cell cycle arrest ([2]; in the presence of DDSBs): enhanced activation of the ATM dependent signaling | cell cycle arrest in isogenic p53-null cells ([2]; isogenic p53-null A549 cells, IR plus M3814): lost the ability to fully arrest their cell cycle | cell cycle effect ([2]; proliferating p53 wild-type A549, A375, H460, single dose of ionizing radiation (2-5Gy) and sustained exposure to M3814): complete cell cycle block | immunomodulatory effect of culture media from M3814-induced senescent cells [3]: increased immunomodulatory effect | upregulation of eighteen immune response genes compared to controls (A549 and A375 cells): 3-150 fold

avelumab: fully human monoclonal antibody of the immunoglobulin (Ig) G1 isotype; selectively binds to PD-L1
receptor occupancy [4]: excellent receptor occupancy | tolerability [4]: well tolerated | median time the tumors needed to double in size as compared to their initial volume at day 0 [1]: 13 days | T/C values calculated at day 13 [1]: 60%
